Data from patent US7932270B2 (Cytokinetics, Inc., priority 2006, dated 2011).

Target: T1, chicken gizzard smooth muscle myosin subfragment-1 chemically crosslinked to cardiac or skeletal actin (Gallus gallus, UniProt P10587)
T1 construct: chicken gizzard smooth muscle myosin subfragment-1; from tissue; host or cells: chicken gizzard
Assay: Smooth muscle myosin ATPase dose response assay (pyruvate kinase/horseradish peroxidase/pyruvate oxidase-coupled, amplex red fluorescence)
Assay type: biochemical
Details: read-out: IC50 Arithmetic Mean
Procedure, shortened: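 Inhibition is measured in a peroxidase/pyruvate oxidase-linked format at pH 7.00 and 22° C, 0.15 mM ATP final. Myosin input is titrated to a target turnover since active fraction differs between preparations.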

T1 sequence (P02607 2-151): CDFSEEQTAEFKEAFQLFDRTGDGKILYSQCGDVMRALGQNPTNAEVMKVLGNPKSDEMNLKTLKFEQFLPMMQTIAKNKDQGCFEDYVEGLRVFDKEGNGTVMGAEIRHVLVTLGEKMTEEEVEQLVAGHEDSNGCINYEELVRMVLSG
T1 sequence (P10587 84-789): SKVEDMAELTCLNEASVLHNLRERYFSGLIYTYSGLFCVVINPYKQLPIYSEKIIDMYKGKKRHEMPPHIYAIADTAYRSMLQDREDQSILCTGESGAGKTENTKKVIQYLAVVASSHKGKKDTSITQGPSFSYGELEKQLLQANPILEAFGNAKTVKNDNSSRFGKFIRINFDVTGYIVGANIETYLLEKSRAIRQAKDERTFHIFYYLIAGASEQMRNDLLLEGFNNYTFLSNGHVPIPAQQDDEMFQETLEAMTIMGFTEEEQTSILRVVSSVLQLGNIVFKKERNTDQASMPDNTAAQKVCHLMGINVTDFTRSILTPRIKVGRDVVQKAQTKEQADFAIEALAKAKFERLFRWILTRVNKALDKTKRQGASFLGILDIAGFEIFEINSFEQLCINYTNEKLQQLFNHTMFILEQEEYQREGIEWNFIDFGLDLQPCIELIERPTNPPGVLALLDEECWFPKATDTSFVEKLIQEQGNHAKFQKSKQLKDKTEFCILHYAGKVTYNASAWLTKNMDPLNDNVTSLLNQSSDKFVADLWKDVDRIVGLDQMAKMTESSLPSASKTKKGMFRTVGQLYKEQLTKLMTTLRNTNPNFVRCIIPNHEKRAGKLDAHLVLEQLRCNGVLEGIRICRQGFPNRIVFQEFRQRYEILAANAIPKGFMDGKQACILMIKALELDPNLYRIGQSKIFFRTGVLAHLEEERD

Structure (SMILES)	IC50
CN1CCN[C@@H](CNC(=O)c2ccc(-c3ccccc3C#N)nc2NCCc2cccc(F)c2)C1 [N-[((2S)-4-methylpiperazin-2-yl)methyl](6-(2-cyanophenyl)-2-{[2-(3-fluorophenyl)ethyl]amino}(3-pyridyl))carboxamide]	2920 nM
N[C@@H](CO)CNC(=O)c1cc(F)c(-c2cn[nH]c2)nc1NCCc1cccc(F)c1 [N-((2R)-2-amino-3-hydroxypropyl)(5-fluoro-2-{[2-(3-fluorophenyl)ethyl]amino}-6-pyrazol-4-yl(3-pyridyl))carboxamide]	1820 nM
COC(=O)[C@H](CN)NC(=O)c1ccc(-c2ccccc2C#N)nc1NCCc1cccc(F)c1 [methyl (2S)-3-amino-2-[(6-(2-cyanophenyl)-2-{[2-(3-fluorophenyl)ethyl]amino}(3-pyridyl))carbonylamino]propanoate]	2320 nM
N#Cc1ccccc1-c1ccc(C(=O)NC[C@@H]2CCCN2C(=O)CCN)c(NCCc2cccc(F)c2)n1 [N-{[(2S)-1-(3-aminopropanoyl)pyrrolidin-2-yl]methyl}(6-(2-cyanophenyl)-2-{[2-(3-fluorophenyl)ethyl]amino}(3-pyridyl))carboxamide]	1860 nM
COC(=O)[C@H](C)NC(=O)c1ccc(-c2ccccc2C#N)nc1NCCc1cccc(F)c1 [methyl (2S)-2-[(6-(2-cyanophenyl)-2-{[2-(3-fluorophenyl)ethyl]amino}(3-pyridyl))carbonylamino]propanoate]	6980 nM
CC1(C)OCC(CNC(=O)c2ccc(-c3ccccc3C#N)nc2NCCc2cccc(F)c2)CO1 [N-[(2,2-dimethyl(1,3-dioxan-5-yl))methyl](6-(2-cyanophenyl)-2-{[2-(3-fluorophenyl)ethyl]amino}(3-pyridyl))carboxamide]	1020 nM
CC(C)(C)OC(=O)NCc1ccc(CNC(=O)c2ccc(-c3ccccc3C#N)nc2NCCc2cccc(F)c2)nc1 [N-[(5-{[(tert-butoxy)carbonylamino]methyl}(2-pyridyl))methyl](6-(2-cyanophenyl)-2-{[2-(3-fluorophenyl)ethyl]amino}(3-pyridyl))carboxamide]	68600 nM
Cn1cc(-c2nc(NCCc3cccc(F)c3)c(C(=O)NC[C@@H](N)CO)cc2F)cn1 [N-((2R)-2-amino-3-hydroxypropyl)(5-fluoro-2-{[2-(3-fluorophenyl)ethyl]amino}-6-(1-methylpyrazol-4-yl)(3-pyridyl))carboxamide]	1260 nM
CNC(=O)[C@H](CNC(=O)OC(C)(C)C)NC(=O)c1ccc(-c2ccccc2C#N)nc1NCCc1cccc(F)c1 [(2S)-3-[(tert-butoxy)carbonylamino]-2-[(6-(2-cyanophenyl)-2-{[2-(3-fluorophenyl)ethyl]amino}(3-pyridyl))carbonylamino]-N-methylpropanamide]	43600 nM
O=C(NCCc1cccnc1)c1ccc(-c2ccccc2)nc1NCCc1ccccc1 [{6-phenyl-2-[(2-phenylethyl)amino](3-pyridyl)}-N-(2-(3-pyridyl)ethyl)carboxamide]	3090 nM
C[C@H](CNC(=O)c1ccc(-c2ccccc2C#N)nc1NCCc1cccc(F)c1)N(C)C(=O)CNC(=O)OC(C)(C)C	5920 nM
N#Cc1ccccc1-c1ccc(C(=O)NCC2CCN(C(=O)CCN)CC2)c(NCCc2cccc(F)c2)n1 [N-{[1-(3-aminopropanoyl)(4-piperidyl)]methyl}(6-(2-cyanophenyl)-2-{[2-(3-fluorophenyl)ethyl]amino}(3-pyridyl))carboxamide]	3870 nM
O=C(NCc1cccs1)c1ccc(-c2ccccc2)nc1NCCc1ccccn1 [{6-phenyl-2-[(2-(2-pyridyl)ethyl)amino](3-pyridyl)}-N-(2-thienylmethyl)carboxamide]	1720 nM
CC(=O)N1CCN(C(C)=O)[C@@H](CNC(=O)c2ccc(-c3ccccc3C#N)nc2NCCc2cccc(F)c2)C1 [N-[((2S)-1,4-diacetylpiperazin-2-yl)methyl](6-(2-cyanophenyl)-2-{[2-(3-fluorophenyl)ethyl]amino}(3-pyridyl))carboxamide]	17200 nM
N#Cc1ccccc1-c1ccc(C(=O)N[C@H]2CCCN(CCN)C2=O)c(NCCc2cccc(F)c2)n1 (stereo in doubt) [N-[1-(2-aminoethyl)-2-oxo(3-piperidyl)](6-(2-cyanophenyl)-2-{[2-(3-fluorophenyl)ethyl]amino}(3-pyridyl))carboxamide]	18500 nM
C[C@@H](CNC(=O)CNC(=O)OC(C)(C)C)CNC(=O)c1cc(F)c(-c2cnn(C)c2)nc1NCCc1cccc(F)c1 [N-{(2R)-3-[(5-fluoro-2-{[2-(3-fluorophenyl)ethyl]amino}-6-(1-methylpyrazol-4-yl)(3-pyridyl))carbonylamino]-2-methylpropyl}-2-[(tert-butoxy)carbonylamino]acetamide]	373 nM
O=C(NCc1cccnc1)c1ccc(-c2ccsc2CO)nc1NCCc1cccc(F)c1 [(2-{[2-(3-fluorophenyl)ethyl]amino}-6-[2-(hydroxymethyl)(3-thienyl)](3-pyridyl))-N-(3-pyridylmethyl)carboxamide]	1570 nM
N#Cc1ccccc1CCNc1nc(-c2ccccc2)ccc1C(=O)NCc1cccnc1	260 nM
Cn1cc(-c2nc(NCCc3cccc(F)c3)c(C(=O)NC[C@H]3CCCN3C(=O)CCCNC(=O)OC(C)(C)C)cc2Cl)cn1 [N-[((2R)-1-{4-[(tert-butoxy)carbonylamino]butanoyl}pyrrolidin-2-yl)methyl](5-chloro-2-{[2-(3-fluorophenyl)ethyl]amino}-6-(1-methylpyrazol-4-yl)(3-pyridyl))carboxamide]	683 nM
O=C(NCc1cccnc1)c1ccc(-c2ccncc2)nc1NCCc1ccccn1 [N-(3-pyridylmethyl){6-(4-pyridyl)-2-[(2-(2-pyridyl)ethyl)amino](3-pyridyl)}carboxamide]	6560 nM
N#Cc1ccccc1-c1ccc(C(=O)N[C@@H](CN)C(=O)O)c(NCCc2cccc(F)c2)n1 [(2S)-3-amino-2-[(6-(2-cyanophenyl)-2-{[2-(3-fluorophenyl)ethyl]amino}(3-pyridyl))carbonylamino]propanoic acid]	11100 nM
C[C@@H](NC(=O)c1ccc(-c2ccccc2C#N)nc1NCCc1cccc(F)c1)C(N)=O	532 nM
CC(=O)NCC1CCCCN1C(=O)c1ccc(-c2ccccc2)nc1NCCc1ccccn1 (stereo not drawn) [N-{[1-({6-phenyl-2-[(2-(2-pyridyl)ethyl)amino]-3-pyridyl}carbonyl)-2-piperidyl]methyl}acetamide]	21200 nM
N#Cc1ccccc1-c1ccc(C(=O)NC[C@H](N)C(N)=O)c(NCCc2cccc(F)c2)n1 [N-((2S)-2-amino-2-carbamoylethyl)(6-(2-cyanophenyl)-2-{[2-(3-fluorophenyl)ethyl]amino}(3-pyridyl))carboxamide]	669 nM

The next molecules have a lower IC50 than those just listed; values first:

IC50	Structure (SMILES)
32 nM	N#Cc1ccccc1-c1ccc(C(=O)NC[C@H]2CCCC(=O)N2CCCCN)c(NCCc2cccc(F)c2)n1 [N-{[(2R)-1-(4-aminobutyl)-6-oxo(2-piperidyl)]methyl}(6-(2-cyanophenyl)-2-{[2-(3-fluorophenyl)ethyl]amino}(3-pyridyl))carboxamide]
116 nM	C[C@H](CNC(=O)c1cc(F)c(-c2cnn(C)c2)nc1NCCc1cccc(F)c1)NC(=O)CCCN
76 nM	Cc1ccccc1CCNc1nc(-c2ccccc2C#N)ccc1C(=O)NCc1cccnc1 [(6-(2-cyanophenyl)-2-{[2-(2-methylphenyl)ethyl]amino}(3-pyridyl))-N-(3-pyridylmethyl)carboxamide]
245 nM	Cn1cc(-c2nc(NCCc3cccc(F)c3)c(C(=O)NC[C@H]3CCCN3C(=O)CCCO)cc2F)cn1 [N-{[(2R)-1-(4-hydroxybutanoyl)pyrrolidin-2-yl]methyl}(5-fluoro-2-{[2-(3-fluorophenyl)ethyl]amino}-6-(1-methylpyrazol-4-yl)(3-pyridyl))carboxamide]
251 nM	CC(=O)N[C@H](C)CNC(=O)c1cc(F)c(-c2cnn(C)c2)nc1NCCc1cccc(F)c1
28 nM	N#Cc1ccccc1-c1ccc(C(=O)NCc2cccnc2)c(NCCc2ccccc2Cl)n1 [(2-{[2-(2-chlorophenyl)ethyl]amino}-6-(2-cyanophenyl)(3-pyridyl))-N-(3-pyridylmethyl)carboxamide]
141 nM	Cn1cc(-c2nc(NCCc3cccc(F)c3)c(C(=O)NC[C@H]3CCN3C(=O)C(C)(C)O)cc2F)cn1 [N-{[(2R)-1-(2-hydroxy-2-methylpropanoyl)azetidin-2-yl]methyl}(5-fluoro-2-{[2-(3-fluorophenyl)ethyl]amino}-6-(1-methylpyrazol-4-yl)(3-pyridyl))carboxamide]
43 nM	NCc1ncccc1CNC(=O)c1ccc(-c2cc[nH]n2)nc1NCCc1cccc(F)c1 [N-{[2-(aminomethyl)(3-pyridyl)]methyl}(2-{[2-(3-fluorophenyl)ethyl]amino}-6-pyrazol-3-yl(3-pyridyl))carboxamide]
42 nM	N#Cc1ccccc1-c1nc(NCCc2cccc(F)c2)c(C(=O)NC[C@H]2CCC(=O)N2CCCN)cc1F [N-{[(2R)-1-(3-aminopropyl)-5-oxopyrrolidin-2-yl]methyl}(6-(2-cyanophenyl)-5-fluoro-2-{[2-(3-fluorophenyl)ethyl]amino}(3-pyridyl))carboxamide]
155 nM	N#Cc1ccccc1-c1ccc(C(=O)NC[C@H]2CCCCN2C(=O)CCN)c(NCCc2cccc(F)c2)n1 [N-{[(2R)-1-(3-aminopropanoyl)(2-piperidyl)]methyl}(6-(2-cyanophenyl)-2-{[2-(3-fluorophenyl)ethyl]amino}(3-pyridyl))carboxamide]
248 nM	N#Cc1ccccc1-c1ccc(C(=O)NCC2CCCCCN2C(=O)CN)c(NCCc2cccc(F)c2)n1 (stereo not drawn) [N-{[1-(2-aminoacetyl)azaperhydroepin-2-yl]methyl}(6-(2-cyanophenyl)-2-{[2-(3-fluorophenyl)ethyl]amino}(3-pyridyl))carboxamide]
66 nM	Cn1cc(-c2nc(NCCc3cccc(F)c3)c(C(=O)NC[C@H]3CCCN3C(=O)CN)cc2F)cn1 [N-{[(2R)-1-(2-aminoacetyl)pyrrolidin-2-yl]methyl}(5-fluoro-2-{[2-(3-fluorophenyl)ethyl]amino}-6-(1-methylpyrazol-4-yl)(3-pyridyl))carboxamide]
